The values that follow come from patent US11701371B2, “ENPP1 inhibitors and their use for the treatment of cancer” (THE BOARD OF TRUSTEES OF THE LELAND STANFORD JUNIOR …, priority 2017, dated 2023).

One test has as its system 4T1-luciferase tumor. Briefly: 4T1-luciferase tumor model with IR, cGAMP and anti-CTLA-4: tumor volume and survival. Particulars: single agent intratumoral on day 2, 4 and 7 after 20 Gy IR. Type of test: in vivo, mouse.
The target in test [1] is T1, purified recombinant mouse ENPP1 (Mus musculus (Mouse), UniProt P06802). Description: ENPP1 enzyme activity assay using 32P cGAMP as a substrate. Type of test: biochemical. Particulars: 32P-cGAMP 5 μM, mouse ENPP1 20 nM, pH 7.5, 5 hours.
Test [2] concerns the target T1, purified recombinant mouse ENPP1. Briefly: ENPP1 activity assay using TMP-pNP as a substrate. The test is classed as biochemical. Particulars: TMP-pNP 2 μM, mouse ENPP1 0.5 nM, pH 7.5. The method, then: Selected compounds of Table 1, Table 2 and other derivatives were prepared and assessed in an ENPP1 activity assay using thymidine monophosphate paranitrophenol (TMP-pNP) as a substrate. Enzyme reactions were prepared with TMP-pNP (2 μM), 5-fold dilutions of ENPP1 inhibitor, and purified recombinant mouse ENPP1 (0.5 nM) in 100 mM Tris, 150 mM NaCl, 2 mM CaCl2, 200 μM ZnCl2, pH 7.5 at room temperature. Reaction progress was monitored by measuring absorbance at 400 nm of paranitrophenolate produced by the reaction for 20 minutes.

T1 sequence (P06802 whole entry): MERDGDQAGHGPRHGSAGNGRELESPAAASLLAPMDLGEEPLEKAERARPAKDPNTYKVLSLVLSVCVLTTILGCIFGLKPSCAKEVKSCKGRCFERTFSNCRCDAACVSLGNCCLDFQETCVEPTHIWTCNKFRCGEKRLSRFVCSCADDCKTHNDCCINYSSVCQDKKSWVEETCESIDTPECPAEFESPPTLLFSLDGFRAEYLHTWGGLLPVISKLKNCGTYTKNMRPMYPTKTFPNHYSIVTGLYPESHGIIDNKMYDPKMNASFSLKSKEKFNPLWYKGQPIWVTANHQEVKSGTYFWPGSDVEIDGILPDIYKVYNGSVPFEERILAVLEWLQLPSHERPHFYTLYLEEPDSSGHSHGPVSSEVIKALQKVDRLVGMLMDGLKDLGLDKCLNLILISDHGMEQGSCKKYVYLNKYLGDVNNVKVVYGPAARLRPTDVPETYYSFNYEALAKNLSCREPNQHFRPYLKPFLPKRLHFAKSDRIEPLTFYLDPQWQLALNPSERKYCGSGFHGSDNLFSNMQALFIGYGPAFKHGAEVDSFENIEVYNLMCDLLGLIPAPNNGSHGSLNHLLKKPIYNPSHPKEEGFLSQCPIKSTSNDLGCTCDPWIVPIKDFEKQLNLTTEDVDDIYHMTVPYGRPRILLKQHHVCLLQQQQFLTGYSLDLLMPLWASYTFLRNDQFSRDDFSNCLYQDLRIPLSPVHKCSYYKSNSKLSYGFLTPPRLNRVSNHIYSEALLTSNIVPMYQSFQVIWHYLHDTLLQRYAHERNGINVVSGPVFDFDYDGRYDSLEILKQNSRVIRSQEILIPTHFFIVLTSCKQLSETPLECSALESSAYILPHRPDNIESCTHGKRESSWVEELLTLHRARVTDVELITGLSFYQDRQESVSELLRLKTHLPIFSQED

Regarding `Nc1nc2c(ncn2[C@@H]2O[C@@H]3COP(=O)(O)O[C@H]4[C@@H](O)[C@H](n5cnc6c(N)ncnc65)O[C@@H]4COP(=O)(O)O[C@@H]2[C@@H]3O)c(=O)[nH]1` [cGAMP, cyclic guanosine monophosphate-adenosine monophosphate], in the test with 4T1-luciferase tumor, the “tumor shrinkage effect on top of IR treatment” value is “no effect over IR treatment”.

For `COc1ccc2c(N3CCC(CCP(=O)(O)O)CC3)nc(C)nc2c1` [Compound 12], the IC50 in test [1] fell in the range of 0.5 to 5 µM. `O=P(O)(O)CCC1CCN(c2ncnc3nc[nH]c23)CC1` [Compound 68]: in test [2], the IC50 lay within 0.5 to 5 µM.
